We go through one compound from patent US12398110B2, “Second generation inhibitors of mitochondrial permeability transition pore with improved plasma stability” (Oregon Health & Science University, priority 2019, dated 2025).

The subject of series [1] is inner mitochondrial membrane potential. Nature of the series: Rhodamine 123 (Rh123) uptake, mitochondrial membrane potential of isolated mouse liver mitochondria. It is filed as biochemical.
The subject of series [2] is col6a1 zebrafish morphants. Nature of the series: Birefringence (muscle structure) in col6a1 zebrafish morphants. It is filed as in vivo. The note with it: 48 hpf. As to the method:
Muscle structure was assessed by birefringence analysis at 48 hpf, a time when muscle tissue is fully developed and organized muscle fibers start to show anisotropic features. A high percentage of severe birefringence abnormality (>75%, FIG. 6C) was detected in col6a1 morphants, indicating major defects of muscle fiber development and organization.
Morpholino antisense injection and treatment. Knock-down of col6a1 gene expression was obtained with a previously published morpholino ^[25] with sequence GAGAGCGGAAGACGAACCTTCATTC (SEQ ID NO: 2; GeneTools, Inc.). A control morpholino with no sequence homology in the zebrafish genome was used in parallel (CCTCTTACCTCAGTTACAATTTATA; SEQ ID NO: 3). Zebrafish eggs from wild-type matings were injected at the 1-2 cell stage with approximately 10 nL of 0.1 mm morpholino solution (corresponding to 4 ng of morpholino) using a WPI pneumatic PicoPump PV820 injector (World Precision Instruments, Inc.). […]
Birefringence. Muscle structure was monitored by birefringence analysis, taking advantage of muscle anisotropy, which is the ability of muscle fibers to refract polarized light. […] With this set-up, light refracted by muscle fibers (due to the pseudo-crystalline array of sarcomeres) is transmitted and analyzed. Integrated area of birefringence was calculated using ImageJ software. […]

Another series relates to HeLa cells. Nature of the series: Oxygen consumption rate of HeLa cell monolayers (Seahorse XF24). In kind it is cell-based. The note with it: ~2 h treatment. The text has this: A thorough evaluation of toxicity is critical for advancing TR001 to in vivo studies. […] To more thoroughly examine mitochondrial toxicity, we analyzed oxygen consumption rates (OCRs) using the Seahorse XF24 extracellular flux analyzer. This allowed us to assess the effects of TR001 on mitochondrial respiration and ATP synthesis. […] Consequently respiratory control ratios (i.e., the ratios between ADP-stimulated and basal respiration) were not affected across the concentrations tested (FIG. 5B). Complex III inhibitor antimycin A shuts down the electron transport chain at the bc1 complex and was used to account for oxygen leak.
Measurement of respiration. Mitochondrial oxygen consumption of isolated mitochondria or HeLa cell monolayer was assessed with the Seahorse Extracellular Flux Analyzer XF24 (Seahorse Bioscience, Billerica, MA, USA). Isolated mouse liver mitochondria: Mitochondrial assay solution contained 220 mm mannitol, 70 mm sucrose, 25 mm MOPS-Tris, 10 mm Pi-Tris, 5 mm MgCl2, 1 mm EGTA-Tris, 0.2% fatty acid free BSA, 5 mm succinate and 2 μm rotenone, pH 7.4. Mitochondria (5 μg, suspended in 50 μL mitochondrial assay solution) were added to each well of an XF24 cell culture microplate, centrifuged at 2000 g for 20 min at 4° C. and then supplemented with 450 μL of mitochondrial assay solution containing 4 mm ADP to initiate the experiments. […]

Some results are limits rather than exact numbers.

As a reminder, the EC50 is the concentration needed to bring the measured effect to its halfway point. In the case of `Cc1ccc(Cl)cc1NC(=O)c1cn(-c2ccc(F)c(O)c2)nn1` [TR001, N-(5-chloro-2-methylphenyl)-1-(4-fluoro-3-hydroxyphenyl)-1H-1,2,3-triazole-4-carboxamide], in series [1] (Rh123 uptake assay), the “interference with buildup of IMM potential (in words)” value is on record as “did not interfere with IMM potential”. In series [1] (interference with Rh123 uptake to mitochondria, average ± SEM, n = 3, read-out: Rh123 uptake EC50), the EC50 is greater than 40 µM. For the same compound, the “muscle structure by birefringence” value in series [2] is “significantly rescued”. Moreover, the “mitochondrial dysfunction (OCR) in intact cells” value in the series with HeLa cells was “did not cause mitochondrial dysfunction”.
